Test results as given in patent publication US4902791A, “Nitrosourea derivatives, process for their preparation and medicaments containing them” (Sanofi S.A., priority 1983, dated 1990).

Columns and labels:
[1] = tested on: colon carcinoma C38; assay: activity on colon carcinoma C38 implanted subcutaneously, I.P. days 2 and 9; type: in vivo, mouse; settings: I.P.
Protocol: A tumor fragment is implanted on day 0 in female B6 D2 F1 mice (19-22 g). The treatment with all of the products is administered by the I.P. route on days 2 and 9 (which is a delayed treatment). The weight of the tumors is calculated on day 20.

[2] = toxicological results, single I.P. dose, DL0 and DL50; type: in vivo, mouse; settings: mice
From the text: DL0, DL50, single I.P. dose administered to the aforementioned strains of mice.

[3] = tested on: L 1210 cells; assay: cytotoxic index after 1 h contact, potential "in vivo" activity (TEST N° 2); type: cell-based, mouse
Protocol: The test used is that of W. J. Durkin et al. Cancer Research 1979, 39, 402-407, modified.
All the nitrosoureas were dissolved in 70% ethanol in the proportion of 10 mg/ml.
2--Determination of the potential "in vivo" activity
L 1210 cells, under conditions similar to the preceding protocol, were contacted for 1 hour with a dose of the various products tested corresponding to a cytotoxic index equal to 20%. After this time, the cells were placed in culture medium not containing nitrosoureas and incubated at 37° C. After 48 hours, the cytotoxic index was determined.

[4] = tested on: leucemia L 1210 IGR; assay: "in vivo" activity on leucemia L1210 IGR, 20 mg/kg i.p. days 1, 5, 9; design: species or system mouse; settings: for percentage of cured mice: surviving more than 60 days
Protocol: Female DBA2 mice were used, about 8 weeks old and weighing about 20 g from the IFFA-CREDO center (les Oncins, 69210 Arbresles)
At day "0", each mouse received intraperitoneally an inoculum of […] in a volume of 0.2 ml.
After tumoral graft, the mice were distributed at random into 21 cages of 5 animals, themselves then distributed, by drawing lots, into 6 experimental series. Within these 6 experimental series, there were constituted a control series of 6 cages and 5 experimental series of 3 cages each, and of which the mice were intended to be treated by the compounds of the invention.
(§1) The protocol was identical for the 3 tumors and the 5 compounds of the invention to be tested.
(§2) As regards the experimental series to be treated, each mouse received, at days 1, 5 and 9, intraperitoneally, a dose of 20 mg/kg of the compound to be tested, in the volume of 0.2 ml of neutralized and sterilized olive oil.
(§3) As regards the control series, each mouse received, intraperitoneally, 0.2 ml of neutralized and sterilized olive oil.
(§4) The results are expressed by the relative increase in survival (T/C×100) calculated from the average survival of the treated animals (T) and that of the control animals (C)
(§5) The mice surviving more than 60 days were considered as cured.
(§6) The figures between parentheses indicate the percentage of cured mice.

[5] = tested on: L 1210 IGR TUMOR; assay: "in vivo" activity on L1210 IGR tumor, 5 mg/kg i.p. days 1, 5, 9; design: species or system mouse
Protocol: (§7) The experiments were identical to those described in preceding paragraph 4 but lower doses were used.
The same protocol was carried out with the tumor L1210 IGR, by inoculating 10^5 tumor cells of L1210 IGR intraperitoneally in the volume of 0.2 ml then, at days 1, 5 and 9, there were injected intraperitoneally 5 mg/kg of each of the compounds to be tested.

[6] = tested on: L 1210 USA Tumor; assay: "in vivo" activity on L1210 U.S.A. tumor, 5 mg/kg i.p. days 1, 5, 9; design: species or system mouse
Protocol: The tumor L1210 U.S.A. is more resistant than tumor L1210 IGR.
as §7
There were inoculated into the mice, 10^5 tumor cells of L1210 U.S.A. intraperitoneally in a volume of 0.2 ml.
At days 1, 5 and 9, the compounds of the invention under test were injected intraperitoneally, at a lower dose than that used in the experiment described at 4, that is to say in the proportion of 5 mg/kg.

[7] = tested on: melanoma B16; assay: "in vivo" activity on melanoma B16, 20 mg/kg i.p. days 1, 5, 9; design: species or system mouse; settings: for percentage of cured mice: surviving more than 60 days
Protocol: Female C57 B 1/6 mice were used, about 8 weeks old and weighing about 20 g, from the IFFA-CREDO center.
At day "0", each mouse received intraperitoneally an inoculum of 2×10^6 tumor cells in a volume of 0.5 ml.
After tumoral graft, distribution at random was carried out as indicated above, to obtain a control series of 8 cages and 5 experimental series of 4 cages each, and of which the mice were intended to be treated by the compounds of the invention.
as §1, §2, §3, §4, §5, §6

[8] = tested on: Tumor LEWIS 3LL; assay: "in vivo" activity on Lewis tumor, 20 mg/kg i.p. days 1, 5, 9; design: species or system mouse; settings: for percentage of cured mice: surviving more than 60 days
Protocol: Procedure was under the conditions which have just been described previously with regard to melanoma B16, by injecting the tumor cells, in the proportion of 2×10^6 per mouse, in the volume of 0.2 ml.
as §1, §2, §3, §4, §5, §6

[9] = tested on: melanoma B16; assay: activity toward melanoma B16 implanted subcutaneously, I.V. route; type: in vivo, mouse; settings: 20 mg/kg/inj. days 3, 7, 11
Protocol: The activity of the substances of the invention was also tested by administering the said substances of the invention by the I.V. route. 0.5 ml of an homogenate of the tumor (1 g/10 ml) is administered to B6C3F1 female mice by the subcutaneous (S.C. route) on day 0. The products of the invention and the substances used for comparison are administered on days 3, 7 and 11 in isotonic solution.
In Table IIA below the results are presented relating to the activity of the substance CI. 1675 administered by the I.V. route on the growth of the melanoma B16 implanted subcutaneously, in comparison with carmustine BCNU marketed under the name of BiCNU®.
In Table IIA below and in the subsequent tables, T represents the mean weight (or median) of the tumors in the treated mice, C represents the mean weight (or median) of the tumors in the control, untreated mice and the ratio T/C% corresponds to T/C×100.

[10] = tested on: colon carcinoma C38; assay: colon carcinoma C38, comparison of I.V. and I.P. routes, treatment days 8, 12, 16; type: in vivo, mouse; design: key to Median wt. of the tumor D20 / Median wt. of the tumor D27: median tumor weight in mg; settings: I.P. Route, 20 mg/kg/inj.
Protocol: With a view to verifying the antitumor activity of the product of the invention CI.1671 when it is administered by the I.V. route, another experiment was performed in which this product was administered by the I.P. route and the I.V. route for the purposes of comparison.
This experiment is carried out under particularly difficult conditions, the first day of the treatment corresponding to the eighth day after the implantation of the carcinoma C38, whereas normally the treatment starts on the day of implantation of the tumor (D0) or 1 day after (D1) the implantation of the tumor.
The median weight of the tumors on the first day of treatment (day 8) is about 12 mg (tumors varying from 8 to 40 mg). The animals are treated on days 8, 12 and 16 depending on the different routes indicated. […]

Structure (SMILES) | relative increase in survival (T/C×100) [4] | percentage of cured mice [4] | Median survival [5] | T/C × 100 (average survival) [5] | T/C × 100 (median survival) [5] | Average survival ±2 σm [6] | Median survival [6] | T/C × 100 (average survival) [6] | T/C × 100 (median survival) [6] | relative increase in survival (T/C×100) [7] | percentage of cured mice [7] | relative increase in survival (T/C×100) [8] | percentage of cured mice [8] | other results
CN(C)S(=O)(=O)CCNC(=O)N(CCCl)N=O [TCNU, reference compound] | – | – | – | – | – | – | – | – | – | – | – | – | – | Number of mice without tumor/total ([1]; 7.5 mg/kg/inj. days 2 and 9): 2/10; T/C ([1]; 7.5 mg/kg/inj. days 2 and 9): 65%; Weight of the tumor on day 20 ([1]; 7.5 mg/kg/inj. days 2 and 9): 266 mg; Number of mice without tumor/total ([1]; 15 mg/kg/inj. days 2 and 9): 7/10; T/C ([1]; 15 mg/kg/inj. days 2 and 9): 0%; Weight of the tumor on day 20 ([1]; 15 mg/kg/inj. days 2 and 9): 0 mg; dead mice (remarks) ([1]; 30 mg/kg/inj. days 2 and 9): 10
CO[C@H]1O[C@H](C)C[C@H](NC(=O)N(CCCl)N=O)[C@H]1O [IC. 85-1590, methyl 3-[3-(2-chloroethyl) 3-nitroso-ureido] 3,4,6-trideoxyα-D-xylo-hexopyranoside] | – | – | – | – | – | – | – | – | – | – | – | – | – | DL0 [2]: ≥ 25 mg/kg
CO[C@@H]1C[C@@H](NC(=O)N(CCCl)N=O)[C@H](O)[C@@H](CNC(=O)N(CCCl)N=O)O1 [IC 1374, Methyl bis 3,6-[3-(2-chloroethyl) 3-nitrosoureido] 2,3,6-tridesoxy α-D-arabinohexopyranoside] | .infin. (The sign 00 indicates that 50% at least of the mice were cured) | 67% | 16,75 | 189 | 185 | 12,9 ± 0,55 | 13,1 | 150 | 151 | 246 | 10% | .infin. (The sign 00 indicates that 50% at least of the mice were cured) | 75% | CYTOTOXIC INDEX ([3]; 1 hour contact at dose giving 20% index, read after 48 hours): 71%; POTENTIAL "IN VIVO" ACTION ([3]; active if cytotoxic index ≥40%): + (if the cytotoxic index was equal to or greater than 40%, the product concerned would be active "in vivo" in the mouse); Average survival ±2 σm [5]: 17,1 ± 2,10
O=NN(CCCl)C(=O)NCCCl [BCNU, (1,3-bis-2-chloroethyl)-1-nitrosourea, reference compound] | – | – | – | – | – | – | – | – | – | – | – | – | – | Median weight of the tumor on day 3 [9]: 40 mg; Median weight of the tumor on day 30 [9]: 2 581 mg; T/C on day 30 (tumor weight) [9]: 33,0%; Median wt. of the tumor D20 [10]: 196; Median wt. of the tumor D27 [10]: 274; Mice without tumor/total D20 [10]: 0/8; Mice without tumor/total D27 [10]: 0/6; T/C % D20 [10]: 34%; T/C % D27 [10]: 21%
CO[C@@H]1C[C@@H](NC(=O)N(CCCl)N=O)[C@H](O)[C@@H](CO)O1 [IC 1184, Methyl 3-[3-(2-chloroethyl) 3-nitrosoureido] 2,3-didesoxy α-D-arabinohexopyranoside] | 556 | 47% | 24 | 378 | 265 | 18 ± 1,19 | 17,8 | 209 | 205 | 235 | 15% | .infin. (The sign 00 indicates that 50% at least of the mice were cured) | 90% | –
